Source: patent publication US20040086942A1, “Ige receptor antagonists” (priority 2003, published 2004)
Values joined by “and” are separate entries in the source; they are usually repeats but may differ in a detail not shown here. Equal entries are not always repeated. Where two headings read alike, the source gives them in different places. Where a SMILES comes first, the peptide text is derived from it. Bridges are numbered along the chain shown (N, C = ends). Roman numbers before positions name the chains, in order.

Tests used:
[1] = target: T1, alpha subunit of the human FcεRI receptor (Homo sapiens, UniProt P12319); assay: cell-based 125I-IgE binding inhibition assay on CHO FcεRI+ cells; conditions: for IC50: IgE-inhibition activity of synthetic peptides, read-out: Inhibition activity: C+hd 50 +l (uM) ± s.d.
T1 construct: expressed in transfected cells; host or cells: Chinese hamster ovary (CHO FcεRI+) cells
T1 sequence (P12319 26-257): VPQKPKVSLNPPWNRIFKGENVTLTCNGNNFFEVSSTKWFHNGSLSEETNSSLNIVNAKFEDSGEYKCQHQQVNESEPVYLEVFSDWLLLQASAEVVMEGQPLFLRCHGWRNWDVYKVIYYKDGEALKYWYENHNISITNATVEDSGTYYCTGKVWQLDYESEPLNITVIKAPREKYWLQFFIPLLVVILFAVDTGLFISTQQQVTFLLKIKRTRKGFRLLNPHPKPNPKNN
Outline: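 Peptides, serially diluted 1:3 from 50-500 uM, preincubated 1 h at room temperature on CHO cells expressing human FcεRI alpha, then 1.5 nM 125I-IgE added for 45-60 min at 4 °C. Buffer F12/DMEM, 1% BSA, 0.05% NaN3, pH 7.2. Bound counts by gamma counting; IC50 from 4-parameter fits.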

[2] = target: T2, FcεRIα (Homo sapiens, UniProt P12319); assay: surface plasmon resonance biosensor direct-binding assay; conditions: midpoint of 4-parameter fit to peptide saturation curve, immobilized receptor; read-out: Binding affinity: EC50 (uM) ± s.d.
T2 construct: human FcεRI(aa 1-176) was expressed using a baculovirus secretion expression system; host or cells: Hi-5 insect cells infected with baculovirus (virus produced in Sf9; transfer vector pAcGP67)
T2 sequence (P12319 26-201): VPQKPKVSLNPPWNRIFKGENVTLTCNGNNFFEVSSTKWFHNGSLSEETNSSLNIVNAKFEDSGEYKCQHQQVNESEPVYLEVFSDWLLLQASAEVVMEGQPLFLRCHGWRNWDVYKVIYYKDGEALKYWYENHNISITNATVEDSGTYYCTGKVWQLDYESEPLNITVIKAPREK
Protocol: Several peptides were also tested in a direct-binding assay using a surface plasmon resonance biosensor (Lofas & Johnsson, J. Chem. Soc. Commun. 21, 1526-1528 (1990)). FcεRIα, produced in baculovirus infected insect cells, was immobilized by the surface thiol method (BIAcore Methods Manual Supplement 5a, BIAcore, Inc., Piscataway, N.J.). Briefly, receptor was reacted with 2-(2pyridinyldithio)ethaneamine hydrochloride (PDEA; Natake & Swaisgood, J. Biochem. 74, 77-86 (1973)), desalted into 10 mM sodium acetate (pH 4.8) and stored in aliquots at −80″C. Thawed PDEA-receptor was injected over carboxymethyl-dextran (B1 or CM5, BIAcore, Inc.) biosensor chips preactivated with N-ethyl-N′-(3-dimethylaminopropyl)-carbodiimide hydrochloride (EDC) and N-hydroxysuccinimide (NHS), cystamine, and DTT. Following coupling, reactive groups on the chip were quenched with […] and ethanolarine. Serial dilutions of peptide in running buffer (phosphate-buffered saline containing 0.05% Tween-20, 0.01% sodium azide) were injected over the immobilized receptor, and the net amount of peptide bound at steady-state was measured as the net change in response (RU) at a point just prior to termination of peptide injection, compared to a running-buffer baseline. Binding affinities (Table 10) are reported as the midpoint (EC50) of a 4-parameter fit to the peptide saturation curve.

[3] = 2D NMR structural score versus reference peptide; format: physicochemical; parameters: key to Structure Score: +++, peptide structurally similar to reference; +, structurally similar to reference but significantly less stable; +/−, peptide has some elements of stable structure, but the conformation differs from the reference structure; −, peptide is predominantly unstructured; *peptide IGE037 (SEQ ID NO:128) was initially unstructured (monomeric form), but became structured after spontaneous dimer formation; conditions: reference IGE134
Outline: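 Backbone ¹H resonances assigned by 2D NMR and ³JHN-Hα coupling constants measured against a reference peptide. Structure scored similar when chemical shifts, coupling constants and NOEs are consistent with the reference structure.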

[4] = target: T3, FcεRI-IgG (Homo sapiens, UniProt P12319); assay: g3 phage competitive binding ELISA (competition with soluble FcεRI-IgG); conditions: for Relative (IC50) (fold weaker): relative to g3c.42, NDB = no detectable binding
T3 construct: consisting of the extracellular domain of FcεR Ifused to the Fc domain of IgG; host or cells: CHO cells
T3 sequence (P12319 26-205 limits assumed): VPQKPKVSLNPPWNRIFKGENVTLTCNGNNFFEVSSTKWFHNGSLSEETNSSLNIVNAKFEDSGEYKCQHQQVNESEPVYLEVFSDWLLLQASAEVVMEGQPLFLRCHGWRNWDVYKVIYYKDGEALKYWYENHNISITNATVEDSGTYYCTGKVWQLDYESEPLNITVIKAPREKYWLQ
Protocol: A phage based competitive binding ELISA for immobilized FcεRI-IgG in the presence of titrated amounts of soluble FcεRI-IgG was performed on each of the clones.
Peptide sequences from g8p-fused phage clones that specifically bound FcεRI-IgG were transferred onto a g3p-display format for monovalent phage display (Bass et al., Proteins 8, 309-314 (1990); Lowman et al., Biochemistry 30, 10832-10838 (1991)). An oligonucleotide encoding for each desired peptide with additional 5′ and 3′ base pair that overlapped with g3 was synthesized. This oligonucleotide was annealed with a g3 single stranded DNA phagemid template. The mutagenesis reaction was transformed into XL-1 Blue E. coli and plated on LB-carb+ agar plates. Individual colonies were propagated in 5 mL of 2YT broth, tetracycline, carbenicillin and VCSM13 helper phage (Stratagene). Single stranded DNA was isolated from the purified phage particles and sequenced to confirm the insertion of the phage peptide sequence. 25 mL preparations of g3 phage clones were propagated overnight and purified by PEG precipitation. After resuspension of the phage pellet in 1.0 mL of PBS, it was serially diluted ⅓ and incubated with immobilized FcεRI-IgG 2 ug/mL in a 96 well Maxisorp microtiter plate for 1 hour at room temperature. The wells were washed 10× with PBST then incubated with 100 uL of anti M13 phage HRP as described above. An OD(492) value corresponding to less than 50% binding was selected and the purified phage clones were diluted to yield this normalized level of signal. […] The mixture was then transferred to 96 well microtiter dishes containing immobilized FcεRI-IgG. After a 1-hour incubation period, the plates were washed 10 times, incubated with anti M13-HRP conjugated antibody and developed with OPD as described above. The data was plotted, and 4-parameter fits (KaleidaGraph 3.0) used for calculation of IC50 values.
Alanine substitutions were made at various positions throughout the peptide sequence for monovalent (g3p) phage display using site directed mutagenesis as described (Kunkel et al., Methods Enzymol. 204, 125-139 (1991)). In addition, stepwise N-terminal and C-terminal truncations of the peptide sequence were constructed. All constructs were made by designing oligonucleotides corresponding to the desired substitution or truncation, with an additional 18 bp of DNA overlapping the peptide or g3 phage DNA sequence. The phage clones were propagated overnight following infection in XL-1 Blue E. coli. Purified phage preparations were titered and assayed for binding to immobilized receptor. FcεRI-IgG competition assays were performed as described above.

[5] = target: T4, FcεRI (Homo sapiens, UniProt P12319); assay: competitive phage ELISA on baculovirus-derived FcεRI; format: binding; conditions: for relative binding affinity (in words): compared with the parent
T4 construct: human FcεRI(aa 1-176) was expressed using a baculovirus secretion expression system; host or cells: Hi-5 insect cells infected with baculovirus (virus produced in Sf9; transfer vector pAcGP67)
T4 sequence (P12319 26-201): T2 sequence (P12319 26-201)
Description: The extracellular domain of the alpha subunit of the human FcεRI(aa 1-176) was expressed using a baculovirus secretion expression system (Pharminten). cDNA encoding this domain was obtained through PCR of a plasmid containing a full length clone. The DNA fragment was ligated into baculovirus tranfer vector pAcGP67 and along with BaculoGold linearized baculovirus DNA was transfected into Sf9 cells Spodoptera frugiperda insect cells for baculovirus production (Pharmingen). Soluble FcεRI was affinity purified from the growth media of baculovirus infected Hi-5 insect cells (Expression Systems).
Phage ELISA assays were carried out as described (Lowman, 1998, supra), using Nunc Maxisorp™ plates coated with a 2 μg/mL solution of baculovirus-derived FcεRI. Peptide-phage were pre-incubated for 5-10 min with serial dilutions of receptor, then added to the receptor-coated plate. After incubation for 1 h at room temperature, the plates were washed and an anti-phage HRP-conjugated antibody (Pharmacia) was added. After further incubation for 20 min, plates were again washed and developed using the substrate OPD (Sigma). Optical density at 492 nm was read and plotted as a function of FcεRI concentration to determine an IC50 of inhibition by each peptide-phage variant.
A phage-based alanine scanning approach was used to map the FcεRI binding determinants of IGE134 (SEQ ID NOS:155, 171), as described above for IGE120 (SEQ ID NO:131, 159). […] Additionally, combinations of Ala mutations, deletions, and other substitutions were tested.

[6] = g3 phage clones, immobilized FcεRI-IgG, titrated soluble FcεRI-IgG, read-out: Phage IC50
[7] = truncated peptides on g3 phage, read-out: IC50

With `CC(C)C[C@H](NC(=O)[C@H](C)N)C(=O)N[C@H]1CSSC[C@H](NC(=O)[C@H](CC(C)C)NC(=O)[C@H](C)N)C(=O)N2CCC[C@H]2C(=O)N[C@@H](C)C(=O)N[C@@H](C(C)C)C(=O)N[C@H](C(=O)N[C@@H](Cc2ccc(O)cc2)C(=O)N[C@H](C(N)=O)C(C)C)CSSC[C@@H](C(=O)N[C@@H](Cc2ccc(O)cc2)C(=O)N[C@H](C(N)=O)C(C)C)NC(=O)[C@H](C(C)C)NC(=O)[C@H](C)NC(=O)[C@@H]2CCCN2C1=O` [IGE088, ALCPAVCYV-nh2] (I: H-ALCPAVCYV-NH2 / II: H-ALCPAVCYV-NH2; disulfide I:3-II:3, I:7-II:7; N-terminus assumed) the IC50 [1] was greater than 450 µM, the EC50 [2] was greater than 450 µM and the “Structure Score” value [3] was “+/−”.

For `CC(C)C[C@H](NC(=O)[C@H](C)N)C(=O)N[C@H]1CSSC[C@@H](C(=O)N[C@@H](Cc2ccc(O)cc2)C(=O)N[C@H](C(N)=O)C(C)C)NC(=O)[C@H](C(C)C)NC(=O)[C@H](C)NC(=O)[C@@H]2CCCN2C(=O)[C@@H](NC(=O)[C@H](CC(C)C)NC(=O)[C@H](C)N)CSSC[C@@H](C(=O)N[C@@H](Cc2ccc(O)cc2)C(=O)N[C@H](C(N)=O)C(C)C)NC(=O)[C@H](C(C)C)NC(=O)[C@H](C)NC(=O)[C@@H]2CCCN2C1=O` [IGE089] (I: H-ALCPAVCYV-NH2 / II: H-ALCPAVCYV-NH2; disulfide I:3-II:7, I:7-II:3), the “inhibiting 125I-IgE binding to cell surface expressed FcεRI (in words)” value [1] was “Significant inhibitory activity”, the IC50 [1] was 64 µM and the EC50 [2] was 64 µM. For the same molecule, the “Structure Score” value [3] was “+++”.

In the case of `CC(C)[C@H](N)C(=O)N[C@@H](CCC(N)=O)C(=O)N[C@H]1CSSC[C@@H](C(=O)N[C@@H](Cc2ccc(O)cc2)C(=O)N[C@H](C(N)=O)C(C)C)NC(=O)[C@H](Cc2ccccc2)NC(=O)[C@H](Cc2c[nH]cn2)NC(=O)[C@@H]2CCCN2C1=O` [IGE129, VQCPHFCYV-nh2] (H-VQCPHFCYV-NH2; disulfide 3-7), the EC50 [2] is reported as greater than 90 µM.

AMAQCTEGPWGWVCMAAD [g3b.5] showed an IC50 [4, 6] of 10 nM.

For CTEGPWGWVCMAAD [g3c.21], the “Relative (IC50) (fold weaker)” value ([4]; truncated peptides on g3 phage) was “NDB”.

For DLPACTEGPWGWVCMAAD [g3b.7], the IC50 [4, 6] was 9 nM.

For GRAQCTEGPWGWVCMAAD [g3b.6], the IC50 [4, 6] was 16 nM.

With GRTECTEGPWGWVCMAAD [g3b.8] the IC50 [4, 6] was 14 nM.

In the case of “IVCPRLCYVGGKALCPDVCAV [SEQ ID NO:143]”, the “fold reduction in binding affinity compared to IGE120” value ([5]; IGE120-phage alanine scan) is reported as “No detectable binding”.

In the case of “IVCPRLCYVGGKALCPDVCYV [SEQ ID NO:131]”, the “relative binding affinity (in words)” value [5] is reported as “improved binding affinity”.

For IVCPRLCYELDYELCPDVCYV, the “fold improved affinity over IGE120” value ([5]; clone from IGE120-phage library) was “about 2 fold”.

In the case of LPRCTEGPWGWVCMAAD [g3c.1], the “Relative (IC50) (fold weaker)” value ([4]; truncated peptides on g3 phage) is reported as 1X and the IC50 [4, 7] is reported as 3 nM.

With NLPRCTEGPWGWVCM [g3c.34] the “Relative (IC50) (fold weaker)” value ([4]; truncated peptides on g3 phage) was 3X and the IC50 [4, 7] was 14.6 nM.

With NLPRCTEGPWGWVCMA [g3c.31] the “Relative (IC50) (fold weaker)” value ([4]; truncated peptides on g3 phage) was 1X and the IC50 [4, 7] was 6.1 nM.

For NLPRCTEGPWGWVCMAA [g3c.29], the “Relative (IC50) (fold weaker)” value ([4]; truncated peptides on g3 phage) was 1X and the IC50 [4, 7] was 5 nM.

With NLPRCTEGPWGWVCMAAD [g3b.1] the IC50 [4, 6] was 13 nM.

In the case of NLPRCTEGPWGWVCMAAD [g3c.42], the “Relative (IC50) (fold weaker)” value ([4]; truncated peptides on g3 phage) is reported as 1X and the IC50 [4, 7] is reported as 3.1 nM and 5.6 nM.

NLPTCTEGPWGWVCMAAD [g3b.3] gave an IC50 [4, 6] of 7 nM.

With RCTEGPWGWVCMAAD [g3c.17] the “Relative (IC50) (fold weaker)” value ([4]; truncated peptides on g3 phage) was “NDB”.

Molecule VMPTCTEGPWGWVCMAAD [g3b.4] has an IC50 [4, 6] of 7 nM.

In the case of VQCPHFCYVGGKALCPDVCYV, the “relative binding affinity (in words)” value [5] is reported as “improved binding affinity”.
